Source: ChEMBL document CHEMBL1649179, “Pharmacokinetics of LB80331 and LB80317 following oral administration of LB80380, a new antiviral agent for chronic hepatitis B (CHB), in healthy adult subjects, CHB patients, and mice” (Antimicrob Agents Chemother, 2009)

Key:
Hepatitis B virus [1] = assay: Antiviral activity against hepatitis B virus infected in human assessed as log reduction in viral titer per ml of serum at 30 mg, po qd for 4 weeks; type: functional
Homo sapiens [2] = assay: Toxicity in chronic hepatitis B virus infected patient assessed as serum ALT level at 240 mg, po qd for 4 weeks by LC-MS analysis; type: organism-based; details: in vivo, 672 h
Homo sapiens [3] = assay: Toxicity in chronic hepatitis B virus infected patient assessed as serum ALT level at 30 mg, po qd for 4 weeks by LC-MS analysis; type: organism-based; details: in vivo, 672 h
Homo sapiens [4] = assay: Toxicity in chronic hepatitis B virus infected patient assessed as serum ALT level at 120 mg, po qd for 4 weeks by LC-MS analysis; type: organism-based; details: in vivo, 672 h
Homo sapiens [5] = assay: Toxicity in chronic hepatitis B virus infected patient assessed as serum ALT level at 60 mg, po qd for 4 weeks by LC-MS analysis; type: organism-based; details: in vivo, 672 h
Hepatitis B virus [6] = assay: Antiviral activity against hepatitis B virus infected in human assessed as log reduction in viral titer per ml of serum at 240 mg, po qd for 4 weeks; type: functional

For `CC(C)(C)C(=O)OCOP(=O)(COC1(Cn2cnc3cnc(N)nc32)CC1)OCOC(=O)C(C)(C)C` [LB80380], the FC (Hepatitis B virus [1]) was 3.02, the Activity (Homo sapiens [2]) was 27 U/L and the Activity (Homo sapiens [3]) was 79.5 U/L. For the same compound, the Activity (Homo sapiens [4]) was 34.5 U/L, the Activity (Homo sapiens [5]) was 68.7 U/L and the FC (Hepatitis B virus [6]) was 3.8.
